Results as given in PMC3496014 (Journal of structural biology, 2012).
Read-outs that look alike come from different tables or passages of the source.

System: PfAtg8 WT
Type: binding, P. falciparum
Settings: for WTRU/NOISE (response divided by overall noise, WT): pH 8
[1] = ratio of WT to K19E/K47E normalized response, hit threshold at least 1.5

Row | Structure (SMILES) | WTRU/NOISE (response divided by overall noise, WT) | (WTRU/NOISE)/(MutRU/NOISE) [1] | (WTRU/NOISE)/(MutRU/NOISE)
1 | O=[N+]([O-])c1ccc(O)c(O)c1 [Fragment 537, 4-nitrocatechol] | 2.39 | 1.90 | –
2 | Oc1ccc(O)c(O)c1 [Fragment 408, 1,2,4-benzenetriol] | 5.33 | 3.56 | –
3 | O=c1ccc2cc(O)c(O)cc2o1 [Fragment 268, 6,7-dihydroxycoumarin] | 1.79 | – | 3.73
4 | Oc1cccc(O)c1O [Fragment 410, 1,2,3-benzenetriol] | 22.79 | 6.19 | –
5 | O=C1CC(=O)c2ccccc21 [Fragment 792, 1,3-indandione] | 2.38 | 2.15 | –
6 | O=[N+]([O-])c1ccc(Cl)c2nonc12 [Fragment 470, 4-chloro-7-nitrobenzofurazan] | – | 1.52 | –
